Results from ChEMBL document CHEMBL3351589, “Novel chalcone derivatives as hypoxia-inducible factor (HIF)-1 inhibitor: synthesis, anti-invasive and anti-angiogenic properties” (Eur J Med Chem, 2015).
The source made the active and inactive calls. The calls are words filed in the database; no cut-off is given here.

Legend:
[1] = system: Hep 3B2; assay: Antimigratory activity in human Hep3B cells assessed as inhibition of VEGF-induced migration at 0.8 to 20 uM by real time cell analysis; type: functional, cell-based
[2] = Reduction of hypoxia-induced HIF-1 alpha expression in human Hep3B cells after 48 hrs by Western blotting analysis; type: functional, cell-based; conditions: Hep 3B2
[3] = Reduction of hypoxia-induced HIF-1 beta expression in human Hep3B cells after 48 hrs by Western blotting analysis; type: functional, cell-based; conditions: Hep 3B2
[4] = system: Hep 3B2; assay: Antiinvasive activity in human Hep3B cells assessed as inhibition of VEGF-induced invasion after 30 mins by transwell assay; type: functional, cell-based
[5] = system: Hep 3B2; assay: Antitumor activity against human Hep3B cells xenografted in Balb/c nude mouse assessed as reduction in MMP-2 expression at 2.5 to 5 mg/kg, iv by immunohistochemical analysis; type: functional, organism-based
[6] = Acute toxicity in Swiss mouse assessed as mortality rate at 200 mg/kg, iv after 14 days relative to control; type: organism-based; set-up: dose 200 mg/kg, route intravenous; conditions: in vivo
[7] = system: Mus musculus; assay: Acute toxicity in Swiss mouse assessed as structural abnormality in kidney at 300 mg/kg, iv after 14 days by histological analysis relative to control; type: organism-based; set-up: dose 300 mg/kg, route intravenous; conditions: in vivo, 336 h
[8] = system: Hep 3B2; assay: Antitumor activity against human Hep3B cells xenografted in iv dosed Balb/c nude mouse assessed as inhibition of tumor growth after 11 days; type: functional, organism-based
[9] = system: HUVEC; assay: Cytotoxicity against HUVEC at >20 uM after 12 hrs by MTT assay; type: cell-based; conditions: human
[10] = Acute toxicity in Swiss mouse assessed as mortality rate at 100 mg/kg, iv after 14 days relative to control; type: organism-based; set-up: dose 100 mg/kg, route intravenous; conditions: in vivo
[11] = Reduction of hypoxia-induced VEGF mRNA expression in human Hep3B cells after 48 hrs by RT-PCR analysis; type: functional, cell-based; conditions: Hep 3B2
[12] = system: HUVEC; assay: Antiangiogenic activity in HUVEC assessed as inhibition of VEGF-induced tube formation after 30 mins by matrigel assay; type: functional, cell-based; conditions: Homo sapiens
[13] = system: Mus musculus; assay: Toxicity in Balb/c nude mouse xenografted with human Hep3B cells assessed as change in body weight at 2.5 to 5 mg/kg, iv; type: organism-based, Hep 3B2; set-up: dose 2.5-5 mg/kg, route intravenous; conditions: in vivo
[14] = system: HUVEC; assay: Antiinvasive activity in HUVEC assessed as inhibition of VEGF-induced invasion after 30 mins by transwell assay; type: functional, cell-based; conditions: Homo sapiens
[15] = Cytotoxicity against human Hep3B cells at >20 uM after 12 hrs by MTT assay; type: cell-based; conditions: hep 3b2, 12 h
[16] = system: Mus musculus; assay: Acute toxicity in Swiss mouse assessed as structural abnormality in lung at 300 mg/kg, iv after 14 days by histological analysis relative to control; type: organism-based; set-up: dose 300 mg/kg, route intravenous; conditions: in vivo, 336 h
[17] = system: Hep 3B2; assay: Antitumor activity against human Hep3B cells xenografted in Balb/c nude mouse assessed as reduction in microvessel density at 2.5 to 5 mg/kg, iv by immunohistochemical analysis; type: functional, organism-based
[18] = system: HUVEC; assay: Antimigratory activity in HUVEC assessed as inhibition of VEGF-induced migration at 0.8 to 20 uM by real time cell analysis; type: functional, cell-based; conditions: Homo sapiens
[19] = Acute toxicity in iv dosed Swiss mouse; type: organism-based; conditions: in vivo
[20] = Reduction of hypoxia-induced VEGF expression in human Hep3B cells after 48 hrs by Western blotting analysis; type: functional, cell-based; conditions: Hep 3B2
[21] = Acute toxicity in Swiss mouse assessed as mortality rate at 300 mg/kg, iv after 14 days relative to control; type: organism-based; set-up: dose 300 mg/kg, route intravenous; conditions: in vivo
[22] = Reduction of hypoxia-induced HIF-1 alpha expression in human Hep3B cells at 10 uM after 48 hrs by Western blotting analysis; type: functional, cell-based; conditions: Hep 3B2
[23] = Reduction of hypoxia-induced HIF-1 beta expression in human Hep3B cells at 10 uM after 48 hrs by Western blotting analysis; type: functional, cell-based; conditions: Hep 3B2

COc1ccc(/C=C/C(=O)c2ccc3c(c2O)C=CC(C)(C)O3)cc1O
Activity [1]: Active
Activity [2]: Dose-dependent effect
Activity [3]: Dose-dependent effect
Activity [4]: Dose-dependent effect
Activity [5]: Active
mortality at 336 h [6]: 0%
Activity [7]: Non-toxic
inhibition [8]: Dose-dependent effect
Activity [9]: Non-toxic
mortality at 336 h [10]: 0%
Activity [11]: Dose-dependent effect
inhibition [12]: Dose-dependent effect
Activity [13]: Non-toxic
Activity [14]: Dose-dependent effect
Activity [15]: Non-toxic
Activity [16]: Non-toxic
Activity [17]: Active
Activity [18]: Active
MTD [19]: 22 mg/kg
Activity [20]: Dose-dependent effect
mortality at 336 h [21]: 16.7%

CC[C@@]1(O)C(=O)OCc2c1cc1n(c2=O)Cc2cc3c(CN(C)C)c(O)ccc3nc2-1
Activity [22]: Active
Activity [23]: Active
